Experimental findings from ChEMBL document CHEMBL4334508, “Oleanolic Acid Derivatives as Potential Inhibitors of HIV-1 Protease” (J Nat Prod, 2019) are described below.

In this experiment the target is Protease (Human immunodeficiency virus 1, UniProt Q9YQ12). Kind of experiment: Inhibition of HIV1 protease expressed in Escherichia coli using Abz-Ala-Arg-Val-Nle-Tyr(NO2)-Glu-Ala-Nle-NH2 peptide as substrate by FRET assay.
Chain of Protease (Q9YQ12 whole entry): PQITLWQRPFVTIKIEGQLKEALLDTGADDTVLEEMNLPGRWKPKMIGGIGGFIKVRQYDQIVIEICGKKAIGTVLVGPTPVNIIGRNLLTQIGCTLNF
`CCC(=O)O[C@H]1CC[C@]2(C)[C@H]3CC=C4[C@@H]5CC(C)(C)CC[C@]5(C(=O)NCCCC(=O)O)CC[C@@]4(C)[C@]3(C)CC[C@H]2C1(C)C`: the IC50 is greater than 50 µM.

Consider `CC(C)[C@H](NC(=O)CCCNC(=O)[C@]12CCC(C)(C)C[C@H]1C1=CC[C@@H]3[C@@]4(C)CC[C@H](OC(=O)CC(C)(C)CC(=O)O)C(C)(C)[C@@H]4CC[C@@]3(C)[C@]1(C)CC2)C(=O)O`, for which it took 46.3 µM to reach half-maximal inhibition (IC50).

`CCCCCCCCCCCC(=O)O[C@H]1CC[C@]2(C)[C@H]3CC=C4[C@@H]5CC(C)(C)CC[C@]5(C(=O)NCCCCCCCCCCC(=O)NCC(=O)O)CC[C@@]4(C)[C@]3(C)CC[C@H]2C1(C)C` had an IC50 greater than 50 µM. In the case of `CC(C)[C@H](NC(=O)CCCCCCCCCCNC(=O)[C@]12CCC(C)(C)C[C@H]1C1=CC[C@@H]3[C@@]4(C)CC[C@H](OC(=O)CC(C)(C)CC(=O)O)C(C)(C)[C@@H]4CC[C@@]3(C)[C@]1(C)CC2)C(=O)O`, the IC50 is greater than 50 µM. Regarding `CC(=O)N[C@H](C(=O)N[C@H](C(=O)N[C@@H](CC(C)C)[C@@H](O)CC(=O)N[C@@H](C)C(=O)N[C@@H](CC(C)C)[C@@H](O)CC(=O)O)C(C)C)C(C)C` [ACETYLPEPSTATIN], the IC50 came out at 0.24 µM. To `CC(C)[C@H](NC(=O)CCCCCCCCCCNC(=O)[C@]12CCC(C)(C)C[C@H]1C1=CC[C@@H]3[C@@]4(C)CC[C@H](OC(=O)c5ccccc5)C(C)(C)[C@@H]4CC[C@@]3(C)[C@]1(C)CC2)C(=O)O` belongs greater than 50 µM; to `CC1(C)CC[C@]2(C(=O)NCCCCCCCCCCC(=O)NCC(=O)O)CC[C@]3(C)C(=CC[C@@H]4[C@@]5(C)CC[C@H](OC(=O)CCC(=O)O)C(C)(C)[C@@H]5CC[C@]43C)[C@@H]2C1`, greater than 50 µM. To `CCCCCC(=O)O[C@H]1CC[C@]2(C)[C@H]3CC=C4[C@@H]5CC(C)(C)CC[C@]5(C(=O)NCCCCCC(=O)O)CC[C@@]4(C)[C@]3(C)CC[C@H]2C1(C)C` belongs greater than 50 µM; to `CCCCCCCCCCCC(=O)O[C@H]1CC[C@]2(C)[C@H]3CC=C4[C@@H]5CC(C)(C)CC[C@]5(C(=O)NCCCC(=O)N[C@H](C(=O)O)C(C)C)CC[C@@]4(C)[C@]3(C)CC[C@H]2C1(C)C`, greater than 50 µM. `CC1(C)CC[C@]2(C(=O)NCCCCCCCCCCC(=O)NCC(=O)O)CC[C@]3(C)C(=CC[C@@H]4[C@@]5(C)CC[C@H](OC(=O)c6ccccc6C(=O)O)C(C)(C)[C@@H]5CC[C@]43C)[C@@H]2C1` had an IC50 of 2.3 µM. Under `C[C@H](NC(=O)CCCCCNC(=O)[C@]12CCC(C)(C)C[C@H]1C1=CC[C@@H]3[C@@]4(C)CC[C@H](OC(=O)CCCC(=O)O)C(C)(C)[C@@H]4CC[C@@]3(C)[C@]1(C)CC2)C(=O)O` stands 38.8 µM. `CCCC(=O)O[C@H]1CC[C@]2(C)[C@H]3CC=C4[C@@H]5CC(C)(C)CC[C@]5(C(=O)NCCCCCC(=O)O)CC[C@@]4(C)[C@]3(C)CC[C@H]2C1(C)C` showed an IC50 greater than 50 µM. Consider `CCCCCC(=O)O[C@H]1CC[C@]2(C)[C@H]3CC=C4[C@@H]5CC(C)(C)CC[C@]5(C(=O)NCCCC(=O)NCC(=O)O)CC[C@@]4(C)[C@]3(C)CC[C@H]2C1(C)C`, for which the IC50 is greater than 50 µM. As for `CC(=O)O[C@H]1CC[C@]2(C)[C@H]3CC=C4[C@@H]5CC(C)(C)CC[C@]5(C(=O)NCCCCCCCCCCC(=O)N[C@@H](C)C(=O)O)CC[C@@]4(C)[C@]3(C)CC[C@H]2C1(C)C`, the IC50 was greater than 50 µM. `CC(=O)O[C@H]1CC[C@]2(C)[C@H]3CC=C4[C@@H]5CC(C)(C)CC[C@]5(C(=O)NCCCCCC(=O)NCC(=O)O)CC[C@@]4(C)[C@]3(C)CC[C@H]2C1(C)C` came in with a 50% inhibitory concentration (IC50) greater than 50 µM. Turning to `CC1(C)CC[C@]2(C(=O)NCCCCCC(=O)NCC(=O)O)CC[C@]3(C)C(=CC[C@@H]4[C@@]5(C)CC[C@H](OC(=O)c6ccccc6C(=O)O)C(C)(C)[C@@H]5CC[C@]43C)[C@@H]2C1`, the IC50 stood at 3.1 µM.

For `CC(C)[C@H](NC(=O)CCCCCNC(=O)[C@]12CCC(C)(C)C[C@H]1C1=CC[C@@H]3[C@@]4(C)CC[C@H](OC(=O)CC(C)(C)CC(=O)O)C(C)(C)[C@@H]4CC[C@@]3(C)[C@]1(C)CC2)C(=O)O`, the midpoint of inhibition, the IC50, lay at 23.2 µM. To `CC1(C)CC[C@]2(C(=O)NCCCC(=O)NCC(=O)O)CC[C@]3(C)C(=CC[C@@H]4[C@@]5(C)CC[C@H](OC(=O)CCC(=O)O)C(C)(C)[C@@H]5CC[C@]43C)[C@@H]2C1` belongs greater than 50 µM.

`CCC(=O)O[C@H]1CC[C@]2(C)[C@H]3CC=C4[C@@H]5CC(C)(C)CC[C@]5(C(=O)NCCCC(=O)N[C@@H](C)C(=O)O)CC[C@@]4(C)[C@]3(C)CC[C@H]2C1(C)C` displayed an IC50 greater than 50 µM. As for `CCCC(=O)O[C@H]1CC[C@]2(C)[C@H]3CC=C4[C@@H]5CC(C)(C)CC[C@]5(C(=O)NCCCCCCCCCCC(=O)O)CC[C@@]4(C)[C@]3(C)CC[C@H]2C1(C)C`, the IC50 was greater than 50 µM. `C[C@H](NC(=O)CCCCCCCCCCNC(=O)[C@]12CCC(C)(C)C[C@H]1C1=CC[C@@H]3[C@@]4(C)CC[C@H](OC(=O)CCC(=O)O)C(C)(C)[C@@H]4CC[C@@]3(C)[C@]1(C)CC2)C(=O)O` returned an IC50 greater than 50 µM. Regarding `CC(C)(CC(=O)O)CC(=O)O[C@H]1CC[C@]2(C)[C@H]3CC=C4[C@@H]5CC(C)(C)CC[C@]5(C(=O)NCCCCCC(=O)O)CC[C@@]4(C)[C@]3(C)CC[C@H]2C1(C)C`, the IC50 turned out to be 12.4 µM. The compound `CC1(C)CC[C@]2(C(=O)NCCCC(=O)O)CC[C@]3(C)C(=CC[C@@H]4[C@@]5(C)CC[C@H](OC(=O)CCC(=O)O)C(C)(C)[C@@H]5CC[C@]43C)[C@@H]2C1` gave an IC50 of 17.7 µM. On to `C[C@H](NC(=O)CCCCCCCCCCNC(=O)[C@]12CCC(C)(C)C[C@H]1C1=CC[C@@H]3[C@@]4(C)CC[C@H](OC(=O)CCCC(=O)O)C(C)(C)[C@@H]4CC[C@@]3(C)[C@]1(C)CC2)C(=O)O`, for which the IC50 was greater than 50 µM. To `CCC(=O)O[C@H]1CC[C@]2(C)[C@H]3CC=C4[C@@H]5CC(C)(C)CC[C@]5(C(=O)NCCCCCC(=O)O)CC[C@@]4(C)[C@]3(C)CC[C@H]2C1(C)C` belongs greater than 50 µM. `CCCCCC(=O)O[C@H]1CC[C@]2(C)[C@H]3CC=C4[C@@H]5CC(C)(C)CC[C@]5(C(=O)NCCCC(=O)O)CC[C@@]4(C)[C@]3(C)CC[C@H]2C1(C)C`: the IC50 was greater than 50 µM. Take `CCCCCC(=O)O[C@H]1CC[C@]2(C)[C@H]3CC=C4[C@@H]5CC(C)(C)CC[C@]5(C(=O)NCCCCCC(=O)N[C@H](C(=O)O)C(C)C)CC[C@@]4(C)[C@]3(C)CC[C@H]2C1(C)C`: the IC50 was greater than 50 µM. Under `CC(=O)O[C@H]1CC[C@]2(C)[C@H]3CC=C4[C@@H]5CC(C)(C)CC[C@]5(C(=O)NCCCCCC(=O)N[C@@H](C)C(=O)O)CC[C@@]4(C)[C@]3(C)CC[C@H]2C1(C)C` stands 47.1 µM. Compound `C[C@H](NC(=O)CCCCCCCCCCNC(=O)[C@]12CCC(C)(C)C[C@H]1C1=CC[C@@H]3[C@@]4(C)CC[C@H](OC(=O)c5ccccc5C(=O)O)C(C)(C)[C@@H]4CC[C@@]3(C)[C@]1(C)CC2)C(=O)O` displayed an IC50 of 1 µM.

In turn, `CCCC(=O)O[C@H]1CC[C@]2(C)[C@H]3CC=C4[C@@H]5CC(C)(C)CC[C@]5(C(=O)NCCCC(=O)N[C@H](C(=O)O)C(C)C)CC[C@@]4(C)[C@]3(C)CC[C@H]2C1(C)C` showed an IC50 greater than 50 µM. For the compound `C[C@H](NC(=O)CCCNC(=O)[C@]12CCC(C)(C)C[C@H]1C1=CC[C@@H]3[C@@]4(C)CC[C@H](OC(=O)c5ccccc5)C(C)(C)[C@@H]4CC[C@@]3(C)[C@]1(C)CC2)C(=O)O`, the midpoint of inhibition, the IC50, lay at 47.1 µM. Regarding `CCC(=O)O[C@H]1CC[C@]2(C)[C@H]3CC=C4[C@@H]5CC(C)(C)CC[C@]5(C(=O)NCCCCCCCCCCC(=O)O)CC[C@@]4(C)[C@]3(C)CC[C@H]2C1(C)C`, the IC50 is greater than 50 µM.

As for `CC(=O)O[C@H]1CC[C@]2(C)[C@H]3CC=C4[C@@H]5CC(C)(C)CC[C@]5(C(=O)NCCCC(=O)N[C@@H](C)C(=O)O)CC[C@@]4(C)[C@]3(C)CC[C@H]2C1(C)C`, the IC50 was greater than 50 µM. `CCCCCCCCCCCC(=O)O[C@H]1CC[C@]2(C)[C@H]3CC=C4[C@@H]5CC(C)(C)CC[C@]5(C(=O)NCCCCCCCCCCC(=O)O)CC[C@@]4(C)[C@]3(C)CC[C@H]2C1(C)C` came in with a concentration for half-maximal inhibition (IC50) greater than 50 µM.

The compound `CC(C)[C@H](NC(=O)CCCCCCCCCCNC(=O)[C@]12CCC(C)(C)C[C@H]1C1=CC[C@@H]3[C@@]4(C)CC[C@H](OC(=O)CCC(=O)O)C(C)(C)[C@@H]4CC[C@@]3(C)[C@]1(C)CC2)C(=O)O` yielded an IC50 greater than 50 µM. In turn, `CC1(C)CC[C@]2(C(=O)NCCCCCC(=O)O)CC[C@]3(C)C(=CC[C@@H]4[C@@]5(C)CC[C@H](OC(=O)c6ccccc6)C(C)(C)[C@@H]5CC[C@]43C)[C@@H]2C1` had an IC50 greater than 50 µM. On to `CC(C)[C@H](NC(=O)CCCNC(=O)[C@]12CCC(C)(C)C[C@H]1C1=CC[C@@H]3[C@@]4(C)CC[C@H](OC(=O)CCCC(=O)O)C(C)(C)[C@@H]4CC[C@@]3(C)[C@]1(C)CC2)C(=O)O`, for which the IC50 amounted to 19.8 µM. `C[C@H](NC(=O)CCCCCNC(=O)[C@]12CCC(C)(C)C[C@H]1C1=CC[C@@H]3[C@@]4(C)CC[C@H](OC(=O)CCC(=O)O)C(C)(C)[C@@H]4CC[C@@]3(C)[C@]1(C)CC2)C(=O)O` registered an IC50 of 40.2 µM. As to `CCCCCC(=O)O[C@H]1CC[C@]2(C)[C@H]3CC=C4[C@@H]5CC(C)(C)CC[C@]5(C(=O)NCCCCCCCCCCC(=O)NCC(=O)O)CC[C@@]4(C)[C@]3(C)CC[C@H]2C1(C)C`, the IC50 is greater than 50 µM.

Take `CCCC(=O)O[C@H]1CC[C@]2(C)[C@H]3CC=C4[C@@H]5CC(C)(C)CC[C@]5(C(=O)NCCCCCC(=O)NCC(=O)O)CC[C@@]4(C)[C@]3(C)CC[C@H]2C1(C)C`: the IC50 is greater than 50 µM. `CC1(C)CC[C@]2(C(=O)NCCCCCCCCCCC(=O)NCC(=O)O)CC[C@]3(C)C(=CC[C@@H]4[C@@]5(C)CC[C@H](OC(=O)CCCC(=O)O)C(C)(C)[C@@H]5CC[C@]43C)[C@@H]2C1` showed an IC50 greater than 50 µM. As for `CCCCCCCCCCCC(=O)O[C@H]1CC[C@]2(C)[C@H]3CC=C4[C@@H]5CC(C)(C)CC[C@]5(C(=O)NCCCCCC(=O)N[C@H](C(=O)O)C(C)C)CC[C@@]4(C)[C@]3(C)CC[C@H]2C1(C)C`, the IC50 is greater than 50 µM.

By IC50 is commonly meant the concentration at which inhibition is half-maximal. High values mean weaker potency in that assay, low ones greater potency in that assay.
